Laboratory results: patent US7368578B2, “Five-membered heterocyclic compounds” (Takeda Pharmaceutical Company Limited, priority 2002, dated 2008)

Experiments:
human PPARγ1 = molecular target: T1, human PPARγ1 (Homo sapiens, UniProt P37231); test: Human PPARγ1 antagonist assay (luciferase reporter in PPARγ:RXRα:4ERPP/CHO-K1 cells); type: cell-based; details: 10 nM compound A as stimulant, luciferase activity, 24 hrs, read-out: Inhibitory rate (%); for inhibition at 1 µM: test compound 10^−6 M
T1 construct: expressed in transfected cells; host or cells: CHO-K1 cells stably transfected with pVgRXR2-hPPARγ and reporter plasmid pGL3-4ERPP-TK neo
T1 sequence (P37231 1-477 isoform P37231-2): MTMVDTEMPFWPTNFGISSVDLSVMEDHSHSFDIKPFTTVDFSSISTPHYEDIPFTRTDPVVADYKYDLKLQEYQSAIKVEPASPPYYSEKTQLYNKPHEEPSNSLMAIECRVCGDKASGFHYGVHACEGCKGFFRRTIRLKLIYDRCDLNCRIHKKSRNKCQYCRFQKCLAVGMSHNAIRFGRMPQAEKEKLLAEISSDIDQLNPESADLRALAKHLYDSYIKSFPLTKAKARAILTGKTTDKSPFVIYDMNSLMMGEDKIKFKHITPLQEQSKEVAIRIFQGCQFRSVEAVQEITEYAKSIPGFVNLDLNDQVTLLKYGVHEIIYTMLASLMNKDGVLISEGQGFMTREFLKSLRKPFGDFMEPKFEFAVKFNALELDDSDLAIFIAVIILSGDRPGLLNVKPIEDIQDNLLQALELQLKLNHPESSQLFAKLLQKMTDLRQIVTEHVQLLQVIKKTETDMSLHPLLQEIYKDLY
T1 sequence (P19793 1-462 partner): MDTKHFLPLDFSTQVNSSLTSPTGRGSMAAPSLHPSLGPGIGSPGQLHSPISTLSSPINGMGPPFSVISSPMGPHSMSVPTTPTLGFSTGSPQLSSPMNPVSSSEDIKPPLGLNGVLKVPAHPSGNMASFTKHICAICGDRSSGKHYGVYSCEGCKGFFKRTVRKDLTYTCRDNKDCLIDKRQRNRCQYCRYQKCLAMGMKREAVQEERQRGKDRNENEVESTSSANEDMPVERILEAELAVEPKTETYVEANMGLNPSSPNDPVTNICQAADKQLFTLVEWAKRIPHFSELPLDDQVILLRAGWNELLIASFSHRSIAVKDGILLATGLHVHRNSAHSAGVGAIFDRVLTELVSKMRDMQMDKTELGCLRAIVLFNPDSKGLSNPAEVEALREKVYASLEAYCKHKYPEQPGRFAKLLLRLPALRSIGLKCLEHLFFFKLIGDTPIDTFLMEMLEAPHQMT
Description: PPARγ:RXRα:4ERPP/CHO-K1 cells (obtained in Reference Example 5a) cultured in Ham's F-12 medium (GIBCO, Inc.) supplemented with 10% fetal bovine serum (TRACE SCIENTIFIC, Ltd.) were seeded in a well of a 96 well white plate at 2×10^4 cells/well and cultured under 37° C. 5% CO2 conditions for 24 hrs. After removal of the medium, Ham's F-12 medium (GIBCO) containing 60 μl of 0.1% BSA (not containing fatty acid) (Wako Pure Chemical Industries, Ltd.), 20 μl of 10^−5M or 10^−6 M test compound and 20 μl of compound A having a final concentration of 10 nM as a stimulant were added, and the cells were cultured under 37° C. 5% CO2 conditions for 24 hrs. After removal of the medium, 40 μl of Pickagene LT7.5 (Wako Pure Chemical Industries, Ltd.) 2-fold diluted with HBSS (HANKS' BALANCED SALT SOLUTION) (BIO WHITTAKER Inc.) was added. After stirring, luciferase activity was measured using 1420 ARVO Multilabel Counter (Wallac, Inc.). In addition, a test similar to the above was conducted for the non-use of the aforementioned test compound alone and for the non-use of the aforementioned test compound and compound A to determine the luciferase activity.
The human PPARγ1 antagonistic activity of the test compound was evaluated using percentages (% inhibition) wherein the luciferase activity when 10 nM compound A alone was added was 0%, and the luciferase activity when the test compound and compound A were not added was 100%. The concentration of the test compound was 10^−5 M for the compounds of Example 42 and 315 and 10^−6 M for other test compounds.
After a CHO-K1 cell cultured in a cell culture flask (150 cm^2) (produced by Corning Costar Corporation, USA) containing Ham's F-12 medium (produced by Life Technologies, Inc., USA) supplemented with 10% fetal bovine serum (produced by Life Technologies, Inc., USA) was detached by treating with 0.5 g/L trypsin-0.2 g/L EDTA (ethylenediaminetetraacetic acid) (produced by Life Technologies, Inc., USA), the cell was washed with PBS (phosphate-buffered saline) (produced by Life Technologies, Inc., USA), centrifuged (1000 rpm, 5 minutes), and then suspended in PBS. Subsequently, the DNA was introduced into the cells under the conditions shown below using GENE PULSER (produced by Bio-Rad Laboratories, USA).
Namely, to a cuvette having a 0.4 cm gap, added were 8×10^6 cells and 10 μg of plasmid pVgRXR2-hPPARγ obtained in Reference Example 4a and 10 μg of reporter plasmid pGL3-4ERPP-TK neo obtained in Reference Example 2a, which was subjected to electroporation at the voltage of 0.25 kV under the capacitance of 960 μF. Subsequently, the cell was transferred into a Ham's F-12 medium containing 10% fetal bovine serum and cultured for 24 hours and then the cells were detached again and centrifuged, and then suspended in HAM F12 medium containing 10% fetal bovine serum supplemented with 500 μg/ml of GENETICIN (produced by Life Technologies, Inc., USA) and 250 μg/ml of ZEOCIN (produced by Invitrogen, USA). The obtained suspension was diluted to the density of 10^4 cells/ml and inoculated to a 96-well plate (produced by Corning Costar Corporation, USA), which was cultured in a CO2 gas incubator at 37° C., whereby obtaining a GENETICIN- and ZEOCIN-resistant transformant. Subsequently, after the transformant cell line thus obtained was cultured in a 24-well plate (produced by Corning Costar Corporation, USA), selected was a cell line in which the luciferase was expressed and induced, i.e., PPARγ:RXRα:4ERPP/CHO-K1 cell by the addition of 10 μM pioglitazone hydrochloride.

inhibition at 1 µM (human PPARγ1) [%] | Structure (SMILES) | melting point [°C] | inhibition at 10 µM (human PPARγ1; test compound 10^−5 M) [%]
96 | COc1cc(COc2nn(-c3ccccc3)cc2/C=C/P(=O)(OC(C)C)OC(C)C)ccc1OCc1nc(-c2ccco2)oc1C [Example 145, diisopropyl (E)-2-{3-[(4-{[2-(2-furyl)-5-methyl-1,3-oxazol-4-yl]methoxy}-3-methoxybenzyl)oxy]-1-phenyl-1H-pyrazol-4-yl}ethenylphosphonate] | 152 to 153 | –
82 | COc1cc(COc2nn(-c3ccccc3)cc2/C=C/c2csc(C)n2)ccc1OCc1nc(-c2ccco2)oc1C [Example 150 (E form), 2-(2-furyl)-4-({2-methoxy-4-[({4-[(E)-2-(2-methyl-1,3-thiazol-4-yl)ethenyl]-1-phenyl-1H-pyrazol-3-yl}oxy)methyl]phenoxy}methyl)-5-methyl-1,3-oxazole] | 111 to 112 | –
66 | CCC(=O)/C=C/c1cn(-c2ccccc2)nc1OCc1ccc(OCc2nc(-c3ccco3)oc2C)c(OC)c1 [Example 156, (1E)-1-{3-[(4-{[2-(2-furyl)-5-methyl-1,3-oxazol-4-yl]methoxy}-3-methoxybenzyl)oxy]-1-phenyl-1H-pyrazol-4-yl}-1-penten-3-one] | 167 to 168 | –
112 | CCc1nc(/C=C/c2cn(-c3ccccc3)nc2OCc2ccc(OCc3nc(-c4cccc(C(=O)O)c4)oc3C)c(OC)c2)cs1 [Example 224, 3-[4-({4-[({4-[(E)-2-(2-ethyl-1,3-thiazol-4-yl)ethenyl]-1-phenyl-1H-pyrazol-3-yl}oxy)methyl]-2-methoxyphenoxy}methyl)-5-methyl-1,3-oxazol-2-yl]benzoic acid] | 190 to 191 | –
69 | COc1cc(COc2nn(-c3ccccc3)cc2/C=C/C#N)ccc1OCc1nc(-c2ccccc2)oc1C [Example 282, (E)-3-(3-{[3-methoxy-4-(5-methyl-2-phenyl-1,3-oxazol-4-ylmethoxy)benzyl]oxy}-1-phenyl-1H-pyrazol-4-yl)-2-propenonitrile] | 184 to 185 | –
107 | CCOC(=O)/C=C/c1cn(-c2ccccc2)nc1OCc1ccc(OCc2nc(-c3ccccc3)oc2C)c(OC)c1 [Example 284, ethyl (E)-3-(3-{[3-methoxy-4-(5-methyl-2-phenyl-1,3-oxazol-4-ylmethoxy)benzyl]oxy}-1-phenyl-1H-pyrazol-4-yl)-2-propenoate] | 194 to 195 | –
108 | CCc1nc(/C=C/c2cn(-c3ccccc3)nc2OCc2ccc(OCc3nc(-c4cccc(C(=O)O)c4)oc3C)c(OC)c2)co1 [Example 307] | 169 to 171 | –
– | CCOP(=O)(/C=C/c1cn(-c2ccccc2)nc1OCc1ccc(OCc2nc(/C=C/C(=O)O)oc2C)c(OC)c1)OCC [Example 315, (2E)-3-[4-({4-[({4-[(E)-2-(diethoxyphosphoryl)ethenyl]-1-phenyl-1H-pyrazol-3-yl}oxy)methyl]-2-methoxyphenoxy}methyl)-5-methyl-1,3-oxazol-2-yl]-2-propenoic acid] | 89 to 90 | 112

Structure (SMILES) | inhibition at 1 µM (human PPARγ1) [%] | melting point [°C] | inhibition at 10 µM (human PPARγ1; test compound 10^−5 M) [%]
CCOP(=O)(/C=C/c1cn(-c2ccccc2)nc1OCc1ccc(OCc2nc(-c3ccccc3)oc2C)c(OC)c1)OCC [Example 146, diethyl (E)-2-[3-({3-methoxy-4-[(5-methyl-2-phenyl-1,3-oxazol-4-yl)methoxy]benzyl}oxy)-1-phenyl-1H-pyrazol-4-yl]ethenylphosphonate] | 111 | 92 to 93 | –
CCOP(=O)(/C=C/c1cn(-c2ccccc2)nc1OCc1ccc(OCc2csc(N3CCOCC3)n2)c(OC)c1)OCC [Example 191, diethyl (E)-2-{3-[(3-methoxy-4-{[2-(morpholin-4-yl)-1,3-thiazol-4-yl]methoxy}benzyl)oxy]-1-phenyl-1H-pyrazol-4-yl}ethenylphosphonate] | 79 | 93 to 94 | –
CCOP(=O)(/C=C/c1cn(-c2ccccc2)nc1OCc1ccc(OCc2nc(-c3cccc(C(=O)O)c3)oc2C)c(OC)c1)OCC [Example 203, 3-[4-({4-[({4-[(E)-2-(diethoxyphosphoryl)ethenyl]-1-phenyl-1H-pyrazol-3-yl}oxy)methyl]-2-methoxyphenoxy}methyl)-5-methyl-1,3-oxazol-2-yl]benzoic acid] | 111 | 148 to 149 | –
CCOP(=O)(/C=C/c1cn(-c2ccccc2)nc1OCc1ccc(OCc2nc(-c3cccc(C(=O)OC)c3)oc2C)c(OC)c1)OCC [Example 211, methyl 3-[4-({4-[({4-[(E)-2-(diethoxyphosphoryl)ethenyl]-1-phenyl-1H-pyrazol-3-yl}oxy)methyl]-2-methoxyphenoxy}methyl)-5-methyl-1,3-oxazol-2-yl]benzoate] | 110 | 141 to 142 | –
CCOP(=O)(/C=C/c1cn(-c2ccccc2)nc1OCc1ccc(OCc2nc(-c3cccc(C(N)=O)c3)oc2C)c(OC)c1)OCC [Example 239, diethyl (E)-2-(3-{[4-({2-[3-(carbamoyl)phenyl]-5-methyl-1,3-oxazol-4-yl}methoxy)-3-methoxybenzyl]oxy}-1-phenyl-1H-pyrazol-4-yl)ethenylphosphonate] | 116 | 127 to 128 | –
CCOP(=O)(/C=C/c1cn(-c2ccccc2)nc1OCc1ccc(OCc2nc(-c3ccc(OC)c(C(=O)O)c3)oc2C)c(OC)c1)OCC [Example 252, 5-{4-({4-[({4-[(E)-2-(diethoxyphosphoryl)ethenyl]-1-phenyl-1H-pyrazol-3-yl}oxy)methyl]-2-methoxyphenoxy}methyl)-5-methyl-1,3-oxazol-2-yl}-2-methoxybenzoic acid] | 111 | 171 to 172 | –
